From patent US11096931B2, “Amide derivatives useful in the treatment of HBV infection or HBV-induced diseases” (Janssen Sciences Ireland Unlimited Company, priority 2019, dated 2021)
Where two headings read alike, the source gives them in different places.

Legend:
[1] = test system: HBV; assay: anti HBV activity, HepG2.117 cell line, intracellular HBV DNA by real-time PCR; format: cell-based, hepatitis B virus; settings: for EC50: Hepatitis B virus, read-out: HBV-AVE-HepG2.117_intra_EC50; for improved anti-HBV activity, fold improvement over Ref. compound 59: from table 4 EC50 values
Procedure: The anti HBV activity was measured using the HepG2.117 cell line, a stable, inducible HBV producing cell line, which replicates HBV in the absence of doxicycline (Tet-off system). The HepG2 cell line is available from ATCC® under number HB-8065. Transfection of the HepG2 cell line can be as described in Sun and Nassal 2006 Journal of Hepatology 45 (2006) 636-645 “Stable HepG2-and Huh7-based human hepatoma cell lines for efficient regulated expression of infectious hepatitis B virus”.
For the antiviral assay, HBV replication was induced, followed by a treatment with serially diluted compound in 96-well plates. After 3 days of treatment, the antiviral activity was determined by quantification of intracellular HBV DNA using real-time PCR and an HBV specific primer set and probe.

[2] = Cytotoxicity, ATPlite cell viability; format: cell-based; settings: human, mean value, HepG2 or HepG2.117 cells
Procedure: Cytotoxicity of the compounds was tested using HepG2 or HepG2.117 cells, incubated for 4 days in the presence of compounds. The viability of the cells was assessed using the Perkin Elmer ATPlite Luminescence Assay System.”

[3] = 72 h, mean value, HepG2.117 cells, 3 days of treatment, intracellular HBV DNA

Structure (SMILES)	EC50 [1, 3] [nM]	CC50 at 4 days [2] [nM]	EC50 ([1]; HepG2.117, 72 h) [nM]	improved anti-HBV activity, fold improvement over Ref. compound 59 [1] [fold]
Cn1cc(C(=O)C(=O)N[C@]2(c3cn[nH]n3)CCC(F)(F)C2)cc1C(=O)Nc1ccc(F)c(C#N)c1 (single isomer, unassigned) [18*R]	15	14100		
Cn1cc(C(=O)C(=O)N[C@@]2(c3cn[nH]n3)CCC(F)(F)C2)cc1C(=O)Nc1ccc(F)c(C#N)c1 (single isomer, unassigned) [18*S]	64	20700		
Cn1cc(C(=O)C(=O)N[C@H](CC(F)F)c2cn[nH]n2)cc1C(=O)Nc1ccc(F)c(C#N)c1 (single isomer, unassigned) [24*R]	46	9400		
Cn1cc(C(=O)C(=O)N[C@@H](CC(F)F)c2cn[nH]n2)cc1C(=O)Nc1ccc(F)c(C#N)c1 (single isomer, unassigned) [24*S]	562	28200		
Cc1c(C(=O)C(=O)N[C@]2(c3cn[nH]n3)CCC(F)(F)C2)cn(C)c1C(=O)Nc1ccc(F)c(Cl)c1 (single isomer, unassigned) [25*R]	3	18600		
Cc1c(C(=O)C(=O)N[C@@]2(c3cn[nH]n3)CCC(F)(F)C2)cn(C)c1C(=O)Nc1ccc(F)c(Cl)c1 (single isomer, unassigned) [25*S]	4	24200		
Cc1c(C(=O)C(=O)N[C@H](CC(F)(F)F)c2cn[nH]n2)cn(C)c1C(=O)Nc1ccc(F)c(Cl)c1 (single isomer, unassigned) [26*R]	7	> 50000		
Cc1c(C(=O)C(=O)N[C@@H](CC(F)(F)F)c2cn[nH]n2)cn(C)c1C(=O)Nc1ccc(F)c(Cl)c1 (single isomer, unassigned) [26*S]	18	> 50000		
Cn1cc(C(=O)C(=O)N[C@@]2(c3cn[nH]n3)C[C@@H]2C(F)F)cc1C(=O)Nc1ccc(F)c(C#N)c1 (single isomer, unassigned) [27*R*R]	273	24300		
Cn1cc(C(=O)C(=O)N[C@]2(c3cn[nH]n3)C[C@H]2C(F)F)cc1C(=O)Nc1ccc(F)c(C#N)c1 (single isomer, unassigned) [27*S*S]	92	> 50000		
Cc1c(C(=O)C(=O)N[C@H](CC(F)(F)F)c2cn[nH]n2)c(C)n(C)c1C(=O)Nc1ccc(F)c(C#N)c1 (single isomer, unassigned) [44*R]	5	> 50000		
Cc1c(C(=O)C(=O)N[C@@H](CC(F)(F)F)c2cn[nH]n2)c(C)n(C)c1C(=O)Nc1ccc(F)c(C#N)c1 (single isomer, unassigned) [44*S]	< 12	> 50000		
Cc1c(C(=O)C(=O)N[C@H](CC(F)(F)F)c2cn[nH]n2)cn(C)c1C(=O)Nc1ccc(F)c(C#N)c1 (single isomer, unassigned) [47*R]	21	> 50000		
Cc1c(C(=O)C(=O)N[C@@H](CC(F)(F)F)c2cn[nH]n2)cn(C)c1C(=O)Nc1ccc(F)c(C#N)c1 (single isomer, unassigned) [47*S]	11	> 50000		
Cc1c(C(=O)C(=O)N[C@](C)(c2cn[nH]n2)C(F)F)cn(C)c1C(=O)Nc1ccc(F)c(C#N)c1 (single isomer, unassigned) [48*R]	12	> 50000		
Cc1c(C(=O)C(=O)N[C@@](C)(c2cn[nH]n2)C(F)F)cn(C)c1C(=O)Nc1ccc(F)c(C#N)c1 (single isomer, unassigned) [48*S]	4	> 50000		
Cc1c(C(=O)C(=O)N[C@H](CC(C)(F)F)c2cn[nH]n2)cn(C)c1C(=O)Nc1ccc(F)c(C#N)c1 (single isomer, unassigned) [49*R]	16	> 50000		
Cc1c(C(=O)C(=O)N[C@@H](CC(C)(F)F)c2cn[nH]n2)cn(C)c1C(=O)Nc1ccc(F)c(C#N)c1 (single isomer, unassigned) [49*S]	27	> 50000		
Cn1cc(C(=O)C(=O)N[C@H](c2cnn[nH]2)C(C)(C)C)cc1C(=O)Nc1ccc(F)c(C#N)c1 (stereo in doubt) [Compound 11]	100	26000		
Cc1cc(NC(=O)c2cc(C(=O)C(=O)NC(C)c3cn[nH]n3)cn2C)ccc1F (stereo not shown) [Compound 1, N-(4-Fluoro-3-methylphenyl)-1-methyl-4-(oxo{[1-(2H-1,2,3-triazol-4-yl)ethyl]amino}acetyl)-1H-pyrrole-2-carboxamide]		> 50000	51	~10
Cc1cc(NC(=O)c2cc(C(=O)C(=O)NC3(c4cn[nH]n4)CC(F)(F)C3)cn2C)ccc1F [Compound 2, 4-[{[3,3-Difluoro-1-(2H-1,2,3-triazol-4-yl)cyclobutyl]amino}(oxo)acetyl]-N-(4-fluoro-3-methylphenyl)-1-methyl-1H-pyrrole-2-carboxamide]		23800	32	~18
Cn1cc(C(=O)C(=O)NC2(c3cn[nH]n3)CC(F)(F)C2)c(Cl)c1C(=O)Nc1ccc(F)c(Cl)c1 [Compound 3]	6	22000		
Cn1cc(C(=O)C(=O)NC2(c3cn[nH]n3)CC(F)(F)C2)cc1C(=O)Nc1ccc(F)c(C#N)c1 [Compound 4]	63	8200		

Structure (SMILES)	EC50 [1, 3] [nM]	CC50 at 4 days [2] [nM]	EC50 ([1]; HepG2.117, 72 h) [nM]	improved anti-HBV activity, fold improvement over Ref. compound 59 [1] [fold]
Cn1cc(C(=O)C(=O)NC2(c3cn[nH]n3)CC(F)(F)C2)c(F)c1C(=O)Nc1ccc(F)c(C#N)c1 [Compound 5]	10	11900		
Cn1cc(C(=O)C(=O)NC2(c3cn[nH]n3)CC(F)(F)C2)cc1C(=O)Nc1ccc(F)c(Cl)c1 [Compound 6]	17	7100		
Cn1cc(C(=O)C(=O)NC2(c3cn[nH]n3)CC(F)(F)C2)c(F)c1C(=O)Nc1ccc(F)c(Cl)c1 [Compound 7]	11	13500		
Cn1cc(C(=O)C(=O)NC2(c3cn[nH]n3)CC(F)(F)C2)c(Cl)c1C(=O)Nc1ccc(F)c(C#N)c1 [Compound 8]	6	> 50000		
Cc1cc(NC(=O)c2cc(C(=O)C(=O)NC(C)(C)c3cn[nH]n3)cn2C)ccc1F [Compound 9]	19	> 50000		
Cn1cc(C(=O)C(=O)NC2(c3c[nH]nn3)CC2)cc1C(=O)Nc1ccc(F)c(C#N)c1 [Compound 10]	150	> 50000		
Cn1cc(C(=O)C(=O)NC2(c3cnnn3C)CC(F)(F)C2)c(Cl)c1C(=O)Nc1ccc(F)c(Cl)c1 [Compound 14]	4	> 50000		
Cn1cc(C2(NC(=O)C(=O)c3cn(C)c(C(=O)Nc4ccc(F)c(Cl)c4)c3Cl)CC(F)(F)C2)nn1 [Compound 15]	4	> 50000		
Cn1ncc(C2(NC(=O)C(=O)c3cn(C)c(C(=O)Nc4ccc(F)c(Cl)c4)c3Cl)CC(F)(F)C2)n1 [Compound 16]	3	> 50000		
Cn1cc(C(=O)C(=O)NC2(c3cn[nH]n3)COC2)cc1C(=O)Nc1ccc(F)c(C#N)c1 [Compound 17]	171	> 50000		
Cn1cc(C(=O)C(=O)NC(CC(F)(F)F)c2cn[nH]n2)cc1C(=O)Nc1ccc(F)c(C#N)c1 (stereo not shown) [Compound 20RS]	61	12000		
Cn1cc(C(=O)C(=O)NC2(c3cn[nH]n3)CS(=O)(=O)C2)cc1C(=O)Nc1ccc(F)c(C#N)c1 [Compound 21]	1270	> 50000		
Cc1nc(C2(NC(=O)C(=O)c3cc(C(=O)Nc4ccc(F)c(C#N)c4)n(C)c3)CC(F)(F)C2)n[nH]1 [Compound 22]	124	29500		
Cc1c(C(=O)C(=O)NC2(c3cn[nH]n3)CC(F)(F)C2)c(Cl)c(C(=O)Nc2ccc(F)c(C#N)c2)n1C [Compound 23]	4	> 50000		
Cn1cc(C(=O)C(=O)NC(CC(F)F)c2cn[nH]n2)cc1C(=O)Nc1ccc(F)c(C#N)c1 (stereo not shown) [Compound 24RS]	60	22100		
Cc1c(C(=O)C(=O)NC(CC(F)F)c2cn[nH]n2)c(C)n(C)c1C(=O)Nc1ccc(F)c(C#N)c1 (stereo not shown) [Compound 29]	9	> 50000		
Cn1cc(C(=O)C(=O)NC2(c3nc[nH]n3)CC(F)(F)C2)cc1C(=O)Nc1ccc(F)c(C#N)c1 [Compound 30]	142	31100		
Cn1cc(C(=O)C(=O)NC2(c3cn[nH]n3)CC(F)(F)C2)c(Br)c1C(=O)Nc1ccc(F)c(C#N)c1 [Compound 31]	3	> 50000		
COc1c(C(=O)C(=O)NC2(c3cn[nH]n3)CC(F)(F)C2)cn(C)c1C(=O)Nc1ccc(F)c(C#N)c1 [Compound 32]	27	31700		
Cc1c(C(=O)C(=O)NC2(c3cn[nH]n3)CC(F)(F)C2)cn(C)c1C(=O)Nc1ccc(F)c(Br)c1 [Compound 34]	4	26300		
Cc1c(C(=O)C(=O)NC2(c3cn[nH]n3)CC(F)(F)C2)c(Cl)n(C)c1C(=O)Nc1ccc(F)c(Cl)c1 [Compound 35]	4	5800		
Cn1cc(C(=O)C(=O)NC2(c3ccccc3)CC(F)(F)C2)cc1C(=O)Nc1ccc(F)c(C#N)c1 [Compound 36]	10	1100		
Cn1cc(C(=O)C(=O)NC2(c3cn[nH]n3)CC(F)(F)C2)c(C2CC2)c1C(=O)Nc1ccc(F)c(C#N)c1 [Compound 38]	24	> 50000		
